Legend:
[1] = target: GDP-bound NRAS wild-type protein (Homo sapiens, UniProt P01111); test: Binding to NRAS by surface plasmon resonance (SPR), Single Cycle Kinetics; settings: SPR; KD ratio class
[2] = target: GDP-bound HRAS wild-type protein (Homo sapiens, UniProt P01112); test: Binding to HRAS by surface plasmon resonance (SPR), Single Cycle Kinetics; settings: SPR; KD ratio class
[3] = test system: human lung cancer strain NCI-H441; test: cells; settings: NCI-H441, 96 h, read-out: NCI-H441 IC50 (nM)

Sequence of GDP-bound NRAS wild-type protein (P01111 whole entry): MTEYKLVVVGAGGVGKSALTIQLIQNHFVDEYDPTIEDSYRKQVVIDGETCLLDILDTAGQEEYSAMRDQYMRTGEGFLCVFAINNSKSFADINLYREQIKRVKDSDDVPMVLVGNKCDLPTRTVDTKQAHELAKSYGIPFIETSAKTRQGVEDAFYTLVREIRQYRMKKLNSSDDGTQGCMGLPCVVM
Sequence of GDP-bound HRAS wild-type protein (P01112 whole entry): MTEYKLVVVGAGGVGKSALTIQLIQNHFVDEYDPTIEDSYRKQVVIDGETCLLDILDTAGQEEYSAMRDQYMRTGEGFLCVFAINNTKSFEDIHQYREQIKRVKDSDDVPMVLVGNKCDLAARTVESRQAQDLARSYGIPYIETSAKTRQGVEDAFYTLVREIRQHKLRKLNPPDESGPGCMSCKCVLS

## CCO[C@@H]1C[C@H]2C(=O)NC3(CCC3)C(=O)N(C)[C@@H](C3CCCC3)C(=O)N(C)[C@H](C(=O)N3CCC3)CC(=O)N(C)[C@@H](CC)C(=O)N[C@@H]([C@@H](C)CC)C(=O)N(C)CC(=O)N(C)[C@H]3C/C=C\CCN(C3=O)[C@@H](CC3CCC(F)(F)CC3)C(=O)N(C)CC(=O)N[C@@H](CCc3cc(F)c(C(F)(F)F)c(F)c3)C(=O)N2C1 [PP1444]
[1]
  NRAS/KRAS (ratio of KD value for GDP-bound NRAS wild-type protein to KD value for KRAS): A (a compound having 10 or more and less than 20 is denoted as A)
[2]
  HRAS/KRAS (ratio of KD value for GDP-bound HRAS wild-type protein to KD value for KRAS): A (a compound having 10 or more and less than 20 is denoted as A)
[3]
  IC50: 103 nM

## CCO[C@@H]1C[C@H]2C(=O)NC3(CCC3)C(=O)N(C)[C@@H](C3CCCC3)C(=O)N(C)[C@H](C(=O)N3CCC3)CC(=O)N(C)[C@@H](CC)C(=O)N[C@@H]([C@@H](C)CC)C(=O)N(C)CC(=O)N(C)[C@H]3C/C=C\CCN(C3=O)[C@@H](CC3CCCCC3)C(=O)N(C)CC(=O)N[C@@H](CCc3cc(F)c(C(F)(F)F)c(F)c3)C(=O)N2C1 [PP1445]
[1]
  NRAS/KRAS (ratio of KD value for GDP-bound NRAS wild-type protein to KD value for KRAS): A (a compound having 10 or more and less than 20 is denoted as A)
[2]
  HRAS/KRAS (ratio of KD value for GDP-bound HRAS wild-type protein to KD value for KRAS): A (a compound having 10 or more and less than 20 is denoted as A)
[3]
  IC50: 92.8 nM

## CCO[C@@H]1C[C@H]2C(=O)NC3(CCC3)C(=O)N(C)[C@@H](C3CCCC3)C(=O)N(C)[C@H](C(=O)N(C)C)CC(=O)N(C)[C@@H](CC3CC3)C(=O)N[C@@H]([C@@H](C)CC)C(=O)N(C)CC(=O)N(C)[C@H]3C/C=C\CCN(C3=O)[C@@H](CC3CCCCC3)C(=O)N(C)CC(=O)N[C@@H](CCc3cc(F)c(C(F)(F)F)c(F)c3)C(=O)N2C1 [PP1446]
[1]
  NRAS/KRAS (ratio of KD value for GDP-bound NRAS wild-type protein to KD value for KRAS): A (a compound having 10 or more and less than 20 is denoted as A)
[2]
  HRAS/KRAS (ratio of KD value for GDP-bound HRAS wild-type protein to KD value for KRAS): A (a compound having 10 or more and less than 20 is denoted as A)
[3]
  IC50: 32 nM

## CCO[C@@H]1C[C@H]2C(=O)NC3(CCC3)C(=O)N(C)[C@@H](C3CCCC3)C(=O)N(C)[C@H](C(=O)N(C)C)CC(=O)N(C)[C@@H](CC3CCCC3)C(=O)N[C@@H]([C@@H](C)CC)C(=O)N(C)CC(=O)N(C)[C@H]3C/C=C\CCN(C3=O)[C@@H](CC3CCC(F)(F)CC3)C(=O)N(C)CC(=O)N[C@@H](CCc3cc(F)c(C(F)(F)F)c(F)c3)C(=O)N2C1 [PP1458]
[1]
  NRAS/KRAS (ratio of KD value for GDP-bound NRAS wild-type protein to KD value for KRAS): A (a compound having 10 or more and less than 20 is denoted as A)
[2]
  HRAS/KRAS (ratio of KD value for GDP-bound HRAS wild-type protein to KD value for KRAS): A (a compound having 10 or more and less than 20 is denoted as A)
[3]
  IC50: 18.2 nM

## CCO[C@@H]1C[C@H]2C(=O)NC3(CCCC3)C(=O)N(C)[C@@H](C3CCCC3)C(=O)N(C)[C@H](C(=O)N(C)C)CC(=O)N(C)[C@@H](CC(C)C)C(=O)N[C@@H]([C@@H](C)CC)C(=O)N(C)CC(=O)N(C)[C@H]3C/C=C\CCN(C3=O)[C@@H](CC3CCC(F)(F)CC3)C(=O)N(C)CC(=O)N[C@@H](CCc3cc(F)c(C(F)(F)F)c(F)c3)C(=O)N2C1 [PP1459]
[1]
  NRAS/KRAS (ratio of KD value for GDP-bound NRAS wild-type protein to KD value for KRAS): A (a compound having 10 or more and less than 20 is denoted as A)
[2]
  HRAS/KRAS (ratio of KD value for GDP-bound HRAS wild-type protein to KD value for KRAS): A (a compound having 10 or more and less than 20 is denoted as A)
[3]
  IC50: 38.6 nM

## CCO[C@@H]1C[C@H]2C(=O)NC3(CCC3)C(=O)N(C)[C@@H](C3CCCC3)C(=O)N(C)[C@H](C(=O)N(C)C)CC(=O)N(C)[C@@H](CC(C)(C)C)C(=O)N[C@@H]([C@@H](C)CC)C(=O)N(C)CC(=O)N(C)[C@H]3C/C=C\CCN(C3=O)[C@@H](CC3CCC(F)(F)CC3)C(=O)N(C)CC(=O)N[C@@H](CCc3cc(F)c(C(F)(F)F)c(F)c3)C(=O)N2C1 [PP1460]
[1]
  NRAS/KRAS (ratio of KD value for GDP-bound NRAS wild-type protein to KD value for KRAS): A (a compound having 10 or more and less than 20 is denoted as A)
[2]
  HRAS/KRAS (ratio of KD value for GDP-bound HRAS wild-type protein to KD value for KRAS): A (a compound having 10 or more and less than 20 is denoted as A)
[3]
  IC50: 32.9 nM

## CC[C@H](C)[C@@H]1NC(=O)[C@H](CC)N(C)C(=O)C[C@@H](C(=O)N(C)C)N(C)C(=O)[C@H](C2CCCC2)N(C)C(=O)C2(CCC2)NC(=O)[C@@H]2CCCN2C(=O)[C@H](CCc2cc(F)c(C(F)(F)F)c(F)c2)NC(=O)CN(C)C(=O)[C@H](CC2CCC(F)(F)CC2)N2CC/C=C\C[C@@H](C2=O)N(C)C(=O)CN(C)C1=O [PP1461]
[1]
  NRAS/KRAS (ratio of KD value for GDP-bound NRAS wild-type protein to KD value for KRAS): A (a compound having 10 or more and less than 20 is denoted as A)
[2]
  HRAS/KRAS (ratio of KD value for GDP-bound HRAS wild-type protein to KD value for KRAS): A (a compound having 10 or more and less than 20 is denoted as A)
[3]
  IC50: 121 nM

## CC[C@H](C)[C@@H]1NC(=O)[C@H](CC)N(C)C(=O)C[C@@H](C(=O)N(C)C)N(C)C(=O)[C@H](C2CCCC2)N(C)C(=O)C2(CCC2)NC(=O)[C@@H]2C[C@@H](C(F)(F)F)CN2C(=O)[C@H](CCc2cc(F)c(C(F)(F)F)c(F)c2)NC(=O)CN(C)C(=O)[C@H](CC2CCCCC2)N2CC/C=C\C[C@@H](C2=O)N(C)C(=O)CN(C)C1=O [PP1465]
[1]
  NRAS/KRAS (ratio of KD value for GDP-bound NRAS wild-type protein to KD value for KRAS): A (a compound having 10 or more and less than 20 is denoted as A)
[2]
  HRAS/KRAS (ratio of KD value for GDP-bound HRAS wild-type protein to KD value for KRAS): A (a compound having 10 or more and less than 20 is denoted as A)
[3]
  IC50: 34.1 nM

## CCO[C@@H]1C[C@H]2C(=O)NC3(CCC3)C(=O)N(C)[C@@H](C3CCCC3)C(=O)N(C)[C@H](C(=O)N(C)C)CC(=O)N(C)[C@@H](CC3CCC3)C(=O)N[C@@H]([C@@H](C)CC)C(=O)N(C)CC(=O)N(C)[C@H]3C/C=C\CCN(C3=O)[C@@H](CC3CCCCC3)C(=O)N(C)CC(=O)N[C@@H](CCc3cc(F)c(C(F)(F)F)c(F)c3)C(=O)N2C1 [PP1469]
[1]
  NRAS/KRAS (ratio of KD value for GDP-bound NRAS wild-type protein to KD value for KRAS): A (a compound having 10 or more and less than 20 is denoted as A)
[2]
  HRAS/KRAS (ratio of KD value for GDP-bound HRAS wild-type protein to KD value for KRAS): A (a compound having 10 or more and less than 20 is denoted as A)
[3]
  IC50: 22.2 nM

## CCO[C@@H]1C[C@H]2C(=O)NC3(CCCC3)C(=O)N(C)[C@@H](C3CCCC3)C(=O)N(C)[C@H](C(=O)N(C)C)CC(=O)N(C)[C@@H](C)C(=O)N[C@@H]([C@@H](C)CC)C(=O)N(C)CC(=O)N(C)[C@H]3C/C=C\CCN(C3=O)[C@@H](CC3CCCCC3)C(=O)N(C)CC(=O)N[C@@H](CCc3cc(F)c(C(F)(F)F)c(F)c3)C(=O)N2C1 [PP1470]
[1]
  NRAS/KRAS (ratio of KD value for GDP-bound NRAS wild-type protein to KD value for KRAS): A (a compound having 10 or more and less than 20 is denoted as A)
[2]
  HRAS/KRAS (ratio of KD value for GDP-bound HRAS wild-type protein to KD value for KRAS): A (a compound having 10 or more and less than 20 is denoted as A)
[3]
  IC50: 111 nM

## CC[C@H](C)[C@@H]1NC(=O)[C@H](CC)N(C)C(=O)C[C@@H](C(=O)N(C)C)N(C)C(=O)[C@H](C2CCCC2)N(C)C(=O)C2(CCC2)NC(=O)[C@@H]2C[C@H](C)CN2C(=O)[C@H](CCc2cc(F)c(C(F)(F)F)c(F)c2)NC(=O)CN(C)C(=O)[C@H](CC2CCCCC2)N2CC/C=C\C[C@@H](C2=O)N(C)C(=O)CN(C)C1=O [PP1471]
[1]
  NRAS/KRAS (ratio of KD value for GDP-bound NRAS wild-type protein to KD value for KRAS): A (a compound having 10 or more and less than 20 is denoted as A)
[2]
  HRAS/KRAS (ratio of KD value for GDP-bound HRAS wild-type protein to KD value for KRAS): A (a compound having 10 or more and less than 20 is denoted as A)
[3]
  IC50: 48.2 nM

## CCO[C@@H]1C[C@H]2C(=O)NC3(CCCC3)C(=O)N(C)[C@@H](C3CCCC3)C(=O)N(C)[C@H](C(=O)N(C)C)CC(=O)N(C)[C@@H](CC(C)C)C(=O)N[C@@H]([C@@H](C)CC)C(=O)N(C)CC(=O)N(C)[C@H]3C/C=C\CCN(C3=O)[C@@H](CC3CCCCC3)C(=O)N(C)CC(=O)N[C@@H](CCc3cc(F)c(C(F)(F)F)c(F)c3)C(=O)N2C1 [PP1473]
[1]
  NRAS/KRAS (ratio of KD value for GDP-bound NRAS wild-type protein to KD value for KRAS): A (a compound having 10 or more and less than 20 is denoted as A)
[2]
  HRAS/KRAS (ratio of KD value for GDP-bound HRAS wild-type protein to KD value for KRAS): A (a compound having 10 or more and less than 20 is denoted as A)
[3]
  IC50: 36.6 nM

## CCO[C@@H]1C[C@H]2C(=O)NC3(CCC3)C(=O)N(C)[C@@H](C3CCCC3)C(=O)N(C)[C@H](C(=O)N(C)C)CC(=O)N(C)[C@@H](CC(C)(C)C)C(=O)N[C@@H]([C@@H](C)CC)C(=O)N(C)CC(=O)N(C)[C@H]3C/C=C\CCN(C3=O)[C@@H](CC3CCCCC3)C(=O)N(C)CC(=O)N[C@@H](CCc3cc(F)c(C(F)(F)F)c(F)c3)C(=O)N2C1 [PP1474]
[1]
  NRAS/KRAS (ratio of KD value for GDP-bound NRAS wild-type protein to KD value for KRAS): A (a compound having 10 or more and less than 20 is denoted as A)
[2]
  HRAS/KRAS (ratio of KD value for GDP-bound HRAS wild-type protein to KD value for KRAS): A (a compound having 10 or more and less than 20 is denoted as A)
[3]
  IC50: 48.2 nM

## CC[C@H](C)[C@@H]1NC(=O)[C@H](CC)N(C)C(=O)C[C@@H](C(=O)N(C)C)N(C)C(=O)[C@H](C2CCCC2)N(C)C(=O)C2(CCC2)NC(=O)[C@@H]2CCCN2C(=O)[C@H](CCc2cc(F)c(C(F)(F)F)c(F)c2)NC(=O)CN(C)C(=O)[C@H](CC2CCCCC2)N2CC/C=C\C[C@@H](C2=O)N(C)C(=O)CN(C)C1=O [PP1475]
[1]
  NRAS/KRAS (ratio of KD value for GDP-bound NRAS wild-type protein to KD value for KRAS): A (a compound having 10 or more and less than 20 is denoted as A)
[2]
  HRAS/KRAS (ratio of KD value for GDP-bound HRAS wild-type protein to KD value for KRAS): A (a compound having 10 or more and less than 20 is denoted as A)
[3]
  IC50: 48.9 nM

## CCO[C@@H]1C[C@H]2C(=O)NC3(CCC3)C(=O)N(C)[C@@H](C3CCCC3)C(=O)N(C)[C@H](C(=O)N(C)C)CC(=O)N(C)[C@@H](CC3CC3)C(=O)N[C@@H]([C@@H](C)CC)C(=O)N(C)CC(=O)N(C)[C@H]3C/C=C\CCN(C3=O)[C@@H](Cc3ccc(F)cc3C)C(=O)N(C)CC(=O)N[C@@H](CCc3ccc(Cl)c(Cl)c3)C(=O)N2C1 [PP1476]
[1]
  NRAS/KRAS (ratio of KD value for GDP-bound NRAS wild-type protein to KD value for KRAS): A (a compound having 10 or more and less than 20 is denoted as A)
[2]
  HRAS/KRAS (ratio of KD value for GDP-bound HRAS wild-type protein to KD value for KRAS): B (a compound having 3 or more and less than 10 is denoted as B)
[3]
  IC50: 216 nM
